Source: publication PMC5772648, “Targeted NUDT5 inhibitors block hormone signaling in breast cancer cells” (Nature Communications, 2018)

Experiments:
U-2 OS cells = experiment: modified alkaline comet assay (OGG1-specific lesions); format: cell-based; conditions: 10 µM, 24 or 72 h
Experimental: The modified comet assay was used to determine relative amounts of OGG1-specific substrates (e.g., 8-oxo-dG) within cellular DNA[9]. U-2 OS cells were transfected with siRNA for 72 h and/or treated with DMSO/500 nM TH1579 for 24 h prior to harvesting by trypsinization. For experiments with TH5427, cells were treated for 24 or 72 h with 10 µM compound.
In brief, 120 µL of 1% agarose in PBS was added to one end of a fully-frosted microscope slide (ThermoFisher Scientific) and protected with a 24 × 40 mm coverslip to form the first layer. Once solidified at 4 °C, the second layer was made by mixing 400 µL of 1.2% low-melting agarose in PBS with 100 µL of a 1 × 10^6 cells/mL suspension in PBS kept at 37 °C. The coverslip was removed and 80 µL was added on top of the first layer, spread with a coverslip, and left to solidify at 4 °C for 5–10 minutes. Two slides were made for each condition. […]
The slides were visualized using a 10x objective and a Zeiss LSM 780 confocal or Zeiss Axiovert 35 microscope. Comets were analyzed with OpenComet (www.cometbio.org/) or Comet Assay IV (http://www.perceptive.co.uk/products/comet-assay-iv/) software and the tail moments (tail length x percent DNA in the tail) were automatically calculated. […] At least 100 cells were analyzed for each condition per replicate.

[1] = SafetyScreen 44 and ExpresSDiversity kinase panels (Eurofins Cerep Panlabs); design: species or system human; conditions: 10 µM
Experimental: TH5427 selectivity was also studied with the SafetyScreen44™ Panel and ExpresSDiversity Kinase Panel from Eurofins Cerep Panlabs at 10 µM, according to the company’s procedures.

NUDT9 = target: T1, NUDT9 (Homo sapiens, UniProt Q9BW91); experiment: phosphohydrolase selectivity, malachite green assay; format: biochemical; conditions: 100 µM
T1 construct: His-tag (N); made in house; host or cells: E. coli BL21 (DE3) R3 pRARE2
T1 sequence (Q9BW91 47-350): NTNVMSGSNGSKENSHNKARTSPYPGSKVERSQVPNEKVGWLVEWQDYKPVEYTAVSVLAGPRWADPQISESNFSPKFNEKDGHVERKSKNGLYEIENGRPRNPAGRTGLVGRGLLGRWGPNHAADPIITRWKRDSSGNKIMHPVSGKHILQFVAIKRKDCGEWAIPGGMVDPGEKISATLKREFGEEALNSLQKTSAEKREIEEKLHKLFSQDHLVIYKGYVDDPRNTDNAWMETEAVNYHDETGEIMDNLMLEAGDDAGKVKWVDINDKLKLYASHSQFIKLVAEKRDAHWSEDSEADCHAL
Experimental: (§1) The selectivity assay for TH5427 against similar pyrophosphohydrolases was performed with MTH1, NUDT9, NUDT2, NUDT12, NUDT14, NUDT15, NUDT18, ITPase, dCTPase and dUTPase[9]. All analyses were performed by malachite green assay following 30 min incubation at room temperature in reaction buffer (100 mM Tris Acetate, pH 7.5, 40 mM NaCl, 10 mM MgAc, 1 mM DTT) with 100 µM TH5427 and preferred substrates for each enzyme (4.75 nM MTH1 with 100 µM dGTP, 8 nM NUDT15 with 100 µM dGTP, 8 nM NUDT2 with 16 µM AP4A, 2 nM NUDT5 with 50 µM ADPR, 20 nM NUDT9 with 50 µM ADPR, 20 nM NUDT12 with 50 µM NADH, 2 nM NUDT14 with 50 µM ADPR, 200 nM NUDT18 with 50 µM 8-oxo-dGTP, 0.2 nM ITPase with […], 35 nM dCTPase with 35 µM dCTP, and 1 nM dUTPase with 12.5 µM dUTP). MTH1, NUDT15, NUDT18, ITPase, dCTPase and dUTPase reactions were coupled with 0.2 U/mL pyrophosphatase, while NUDT2, NUDT5, NUDT9, NUDT12, and NUDT14 reactions were coupled by bovine intestinal phosphatase (10 U/mL).

NUDT12 = target: T2, NUDT12 (Homo sapiens, UniProt Q9BQG2); experiment: as above; format: biochemical
T2 construct: His-tag (N); made in house; host or cells: E. coli BL21 (DE3) R3 pRARE2
Experimental: as §1

dCTPase = target: T3, dCTPase (Homo sapiens, UniProt Q9H773); experiment: as above; format: biochemical
T3 construct: His-tag (N, cleaved yes); made in house; host or cells: E. coli BL21 (DE3) R3 pRARE2
T3 sequence (Q9H773 1-170): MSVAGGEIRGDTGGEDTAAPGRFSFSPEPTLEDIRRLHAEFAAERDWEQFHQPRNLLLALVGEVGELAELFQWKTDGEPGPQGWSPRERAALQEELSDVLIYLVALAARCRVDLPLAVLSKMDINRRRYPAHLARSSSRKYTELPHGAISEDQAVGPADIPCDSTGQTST
Experimental: as §1

HL-60 or U-2 OS cells = experiment: cell viability by resazurin; format: cell-based; conditions: 72 h, Supplementary Figs. 7 and 10b (HL-60, U-2 OS, T47D)
Experimental: Cell viability was assessed by resazurin[9]. 5000 HL-60 cells (or 1000 U-2 OS/2000 T47D cells) were seeded per well on a 96-well plate. The following morning, compounds (or the equivalent amount of DMSO) were added to obtain the final concentrations indicated and the cells were incubated at 37 °C for 72 h with resazurin added at 0.02 mg/mL for the last 2–6 h. Resorufin fluorescence was detected at […] with a Hidex Sense fluorescent plate reader. Viability curves were fit using the sigmoidal dose-response (variable slope) function in GraphPad Prism 7.

T2 sequence (Q9BQG2 whole entry): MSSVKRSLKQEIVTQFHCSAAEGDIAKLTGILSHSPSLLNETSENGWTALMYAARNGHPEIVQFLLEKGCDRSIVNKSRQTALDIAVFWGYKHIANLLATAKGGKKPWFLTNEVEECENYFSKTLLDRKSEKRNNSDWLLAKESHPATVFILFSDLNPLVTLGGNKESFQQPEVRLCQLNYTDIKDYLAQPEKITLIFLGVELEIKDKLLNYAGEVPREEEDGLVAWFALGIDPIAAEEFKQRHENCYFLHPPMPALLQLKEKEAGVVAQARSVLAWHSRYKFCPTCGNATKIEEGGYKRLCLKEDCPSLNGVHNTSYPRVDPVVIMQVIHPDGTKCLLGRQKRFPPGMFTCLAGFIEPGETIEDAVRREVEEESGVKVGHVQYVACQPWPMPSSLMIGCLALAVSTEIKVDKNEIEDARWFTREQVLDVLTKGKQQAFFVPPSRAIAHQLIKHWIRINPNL

For `Cn1c(=O)c2c(nc(N3CCNCC3)n2Cc2nnc(-c3ccc(Cl)c(Cl)c3)o2)n(C)c1=O` [TH5427], the “OGG1-specific DNA lesions” value (U-2 OS cells) was “nor increased OGG1-specific DNA lesions”, the “off-target interactions in panels” value [1] was “only displayed a few significant interactions” and the “effect on NUDT9-mediated hydrolysis of ADPR” value (NUDT9) was “no effect”. For the same compound, the inhibition at 100 µM (NUDT12) was 66%, the inhibition at 100 µM (dCTPase) was 39% and the “toxicity in cell lines tested” value (HL-60 or U-2 OS cells) was “non-toxic in cell lines tested up to 20 µM”.
